What all share (type): cell-based
Assay [1] deals with T1, α4β7 integrin (Homo sapiens (Human), UniProt P13612+P26010). Put plainly: MAdCAM-1/α4β7 integrin binding inhibitory activity evaluation test (RPMI-8866 cell adhesion to MAdCAM-1/Fc). The conditions noted are these: for Selectivity: IC50 in VCAM-1/α4β1 test divided by IC50 in MAdCAM-1/α4β7 test; for IC50: RPMI-8866 cells binding to recombinant mouse MAdCAM-1/Fc, no serum. The procedure: The ability of test substances to inhibit the binding of a human B cell line, RPMI-8866, which is known to express α4β7 integrin, to MAdCAM-1 was measured. To 96-well microtiter plates, recombinant mouse MAdCAM-1/Fc (R&D systems) solution (0.75 μg/mL) diluted with buffer A (carbonate buffer solution, pH 9.6) was added at 50 μL/well, followed by incubation at 4° C. overnight. After washing once with PBS, Block Ace (Snow Brand Milk Products Company, Limited) was added at 150 μL/well, followed by incubation at room temperature for 2 hours. After removal, washing was conducted once with PBS. 100 μL of each test substance diluted with binding buffer (DMEM containing 40 mM HEPES, 0.2% BSA, and 4 mM MnCl2) to various concentrations and 100 μL of RPMI-8866 cells (2×10^6 cell/mL) were added to the plates coated with MAdCAM-1/Fc (5×10^5 cells/well), followed by incubation at 30° C. for 15 minutes to 60 minutes. After the cells were bound to each well, unbound cells were removed by washing with PBS. To the plates, buffer C (PBS containing 1.5% Triton X-100) was added at 50 μL/well to lyse the bound RPMI-8866 cells. To 30 μL of the cell lysate, 30 μL of Substrate Buffer (Promega, CytoTox 96 Non-Radioactive Cytotoxicity Assay) was added, and the reaction was allowed to proceed at room temperature in a dark place for 30 minutes. To each well, 30 μL of Stop Solution (Promega, CytoTox 96 Non-Radioactive Cytotoxicity Assay) was added, and the absorbance at 490 nm was measured by using a plate reader. Here, by the obtained absorbance, the activity of the lactate dehydrogenase (LDH) dissolved into the supernatant of each well was detected. In other words, the absorbance was proportional to the number of the RPMI-8866 cells bound to MAdCAM-1 and remaining on the plate. The test was duplicated. The binding ratios of the cells at various concentrations were determined, with the absorbance of a well containing no test substance taken as 100%. Then, the concentration IC50, at which 50% binding inhibition was achieved, was calculated. […] Note that the selectivity in the table was determined by dividing the IC50 value in VCAM-1/α4β1 Integrin Binding Inhibitory Activity Evaluation Test by the IC50 value in the MAdCAM-1/α4β7 integrin binding inhibitory activity evaluation test.

Assay [2] deals with T1, α4β7 integrin. Put plainly: MAdCAM-1/α4β7 integrin binding inhibitory activity evaluation test in the presence of serum (1). Particulars: RPMI-8866 cells binding to mouse MAdCAM-1/Fc, human serum at final concentration of 50%; read-out: α4β7 with serum added, IC50. The protocol: The ability of test substances to inhibit the binding of a human B cell line, RPMI-8866, which is known to express α4β7 integrin, to MAdCAM-1 was measured. To 96-well microtiter plates, recombinant mouse MAdCAM-1/Fc (R&D systems) solution (1 μg/mL) diluted with buffer A (carbonate buffer, pH 9.6) was added at 50 μL/well, followed by incubation at 4° C. overnight. After washing once with PBS, Block Ace (Snow Brand Milk Products Company, Limited) was added at 150 μL/well, followed by incubation at room temperature for 2 hours. After removal, washing was conducted once with PBS. 100 μL of each test substance diluted with a binding buffer (DMEM containing 40 mM HEPES, 0.2% BSA, and 4 mM MnCl2) to various concentrations and 100 μL of RPMI-8866 cells (2×10^6 cell/mL) were added to plates coated with MAdCAM-1/Fc (5×10^5 cells/well) with human serum being contained at a final concentration of 50%, followed by incubation at 30° C. for 15 minutes to 60 minutes. After the cells were bound to each well, unbound cells were removed by washing with PBS. To the plates, buffer C (PBS containing 1.5% Triton X-100) was added at 50 μL/well to lyse the bound RPMI-8866 cells. To 30 μL of the cell lysate, 30 μL of Substrate Buffer (Promega, CytoTox 96 Non-Radioactive Cytotoxicity Assay) was added, and the reaction was allowed to proceed at room temperature in a dark place for 30 minutes. To each well, 30 μL of Stop Solution (Promega, CytoTox 96 Non-Radioactive Cytotoxicity Assay) was added, and the absorbance at 490 nm was measured by using a plate reader. Here, by the obtained absorbance, the activity of the lactate dehydrogenase (LDH) dissolved into the supernatant of each well was detected. In other words, the absorbance was proportional to the number of the RPMI-8866 cells bound to MAdCAM-1 and remaining on the plate. The test was duplicated. The binding ratios of the cells at various concentrations were determined, with the absorbance of a well containing no test substance taken as 100%. Then, the concentration IC50, at which 50% binding inhibition was achieved, was calculated.

A further assay has as its target α4β1 integrin (Homo sapiens (Human), UniProt P05556+P13612). Put plainly: VCAM-1/α4β1 integrin binding inhibitory activity evaluation test (Jurkat cell adhesion to VCAM-1/Fc). Particulars: Jurkat cells binding to recombinant human VCAM-1/Fc. The protocol:
The ability of test substances to inhibit the binding of a human T-cell line, Jurkat, which is known to express α4β1 integrin, to VCAM-1 was measured. To 96-well microtiter plates, recombinant human VCAM-1/Fc (R&D systems) solution (1 μg/mL) diluted with buffer A (carbonate buffer, pH 9.6) was added at 50 μL/well, followed by incubation at 4° C. overnight. After washing once with PBS, Block Ace (Snow Brand Milk Products Company, Limited) was added at 150 μL/well, followed by incubation at room temperature for 2 hours. After removal, washing was conducted once with PBS. 100 μL of each test substance diluted with a binding buffer (DMEM containing 40 mM HEPES, 0.2% BSA, and 4 mM MnCl2) to various concentrations and 100 μL of the Jurkat cells (2×10^6 cell/mL) were added to the plates coated with VCAM-1/Fc (5×10^5 cells/well), followed by incubation at 30° C. for 15 minutes to 60 minutes. After the cells were bound to each well, unbound cells were removed by washing with PBS. To the plates, buffer C (PBS containing 1.5% Triton X-100) was added at 50 μL/well to lyse the bound Jurkat cells. To 30 μL of the cell lysate, 30 μL of Substrate Buffer (Promega, CytoTox 96 Non-Radioactive Cytotoxicity Assay) was added, and the reaction was allowed to proceed at room temperature in a dark place for 30 minutes. To each well, 30 μL of Stop Solution (Promega, CytoTox 96 Non-Radioactive Cytotoxicity Assay) was added, and the absorbance at 490 nm was measured by using a plate reader. Here, by the obtained absorbance, the activity of the lactate dehydrogenase (LDH) dissolved into the supernatant of each well was detected. In other words, the absorbance was proportional to the number of the Jurkat cells bound to VCAM-1 and remaining on the plate. The test was duplicated. The binding ratios of the cells at various concentrations were determined, with the absorbance of a well containing no test substances taken as 100%. Then, the concentration IC50, at which 50% binding inhibition was achieved, was calculated. […] Note that, among the compounds synthesized in the corresponding Examples, the compounds in the free form (Compounds A-1 to A-39) were used as the test compounds. Hereinafter, the same shall apply.

T1 sequence (P13612 34-1032): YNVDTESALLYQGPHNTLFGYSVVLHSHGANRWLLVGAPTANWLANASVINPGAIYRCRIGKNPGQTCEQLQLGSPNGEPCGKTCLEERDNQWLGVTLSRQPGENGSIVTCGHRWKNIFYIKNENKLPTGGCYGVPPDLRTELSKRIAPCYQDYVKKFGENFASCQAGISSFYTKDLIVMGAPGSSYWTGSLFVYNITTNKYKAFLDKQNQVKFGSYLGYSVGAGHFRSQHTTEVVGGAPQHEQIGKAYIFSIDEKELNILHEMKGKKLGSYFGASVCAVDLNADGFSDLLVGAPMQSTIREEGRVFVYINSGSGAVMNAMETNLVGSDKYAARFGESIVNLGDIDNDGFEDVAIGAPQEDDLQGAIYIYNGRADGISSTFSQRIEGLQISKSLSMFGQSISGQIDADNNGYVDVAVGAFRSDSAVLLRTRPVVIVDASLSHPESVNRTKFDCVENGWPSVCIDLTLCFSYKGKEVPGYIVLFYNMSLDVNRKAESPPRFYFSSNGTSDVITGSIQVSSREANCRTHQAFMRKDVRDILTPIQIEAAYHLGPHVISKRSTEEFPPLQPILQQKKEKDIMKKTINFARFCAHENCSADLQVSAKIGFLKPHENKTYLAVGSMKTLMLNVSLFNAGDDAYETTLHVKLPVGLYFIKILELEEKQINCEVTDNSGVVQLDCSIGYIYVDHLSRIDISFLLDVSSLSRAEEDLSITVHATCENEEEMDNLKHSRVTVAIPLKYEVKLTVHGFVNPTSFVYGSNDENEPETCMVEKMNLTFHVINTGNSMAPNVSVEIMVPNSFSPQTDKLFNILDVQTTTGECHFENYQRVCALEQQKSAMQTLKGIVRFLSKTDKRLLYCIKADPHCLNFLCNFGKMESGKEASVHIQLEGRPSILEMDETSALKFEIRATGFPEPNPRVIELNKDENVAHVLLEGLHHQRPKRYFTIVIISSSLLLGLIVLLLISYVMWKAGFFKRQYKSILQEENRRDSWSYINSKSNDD
T1 sequence (P26010 20-798): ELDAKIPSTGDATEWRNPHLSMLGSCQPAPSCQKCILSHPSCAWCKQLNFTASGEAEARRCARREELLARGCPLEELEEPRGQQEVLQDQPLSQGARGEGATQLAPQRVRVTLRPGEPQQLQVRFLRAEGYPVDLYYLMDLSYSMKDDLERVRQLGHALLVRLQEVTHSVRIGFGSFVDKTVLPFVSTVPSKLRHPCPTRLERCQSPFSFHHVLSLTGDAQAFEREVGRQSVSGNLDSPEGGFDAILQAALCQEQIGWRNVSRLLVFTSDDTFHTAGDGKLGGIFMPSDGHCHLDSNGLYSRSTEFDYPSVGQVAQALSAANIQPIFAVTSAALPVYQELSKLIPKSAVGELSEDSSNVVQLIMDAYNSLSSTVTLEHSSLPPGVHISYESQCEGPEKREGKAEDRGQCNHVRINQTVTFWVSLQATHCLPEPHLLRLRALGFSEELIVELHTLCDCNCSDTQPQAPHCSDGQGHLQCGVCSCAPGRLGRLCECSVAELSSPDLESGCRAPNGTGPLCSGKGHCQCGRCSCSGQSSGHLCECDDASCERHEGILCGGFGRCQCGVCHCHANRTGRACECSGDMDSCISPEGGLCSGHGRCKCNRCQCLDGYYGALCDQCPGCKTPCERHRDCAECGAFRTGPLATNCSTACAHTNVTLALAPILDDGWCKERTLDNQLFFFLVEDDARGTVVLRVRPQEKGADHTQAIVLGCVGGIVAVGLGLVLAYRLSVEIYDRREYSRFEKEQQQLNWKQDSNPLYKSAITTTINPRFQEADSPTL
α4β1 integrin, sequence (P13612 34-1032): as the sequence (P13612 34-1032) above
α4β1 integrin, sequence (P05556 21-798): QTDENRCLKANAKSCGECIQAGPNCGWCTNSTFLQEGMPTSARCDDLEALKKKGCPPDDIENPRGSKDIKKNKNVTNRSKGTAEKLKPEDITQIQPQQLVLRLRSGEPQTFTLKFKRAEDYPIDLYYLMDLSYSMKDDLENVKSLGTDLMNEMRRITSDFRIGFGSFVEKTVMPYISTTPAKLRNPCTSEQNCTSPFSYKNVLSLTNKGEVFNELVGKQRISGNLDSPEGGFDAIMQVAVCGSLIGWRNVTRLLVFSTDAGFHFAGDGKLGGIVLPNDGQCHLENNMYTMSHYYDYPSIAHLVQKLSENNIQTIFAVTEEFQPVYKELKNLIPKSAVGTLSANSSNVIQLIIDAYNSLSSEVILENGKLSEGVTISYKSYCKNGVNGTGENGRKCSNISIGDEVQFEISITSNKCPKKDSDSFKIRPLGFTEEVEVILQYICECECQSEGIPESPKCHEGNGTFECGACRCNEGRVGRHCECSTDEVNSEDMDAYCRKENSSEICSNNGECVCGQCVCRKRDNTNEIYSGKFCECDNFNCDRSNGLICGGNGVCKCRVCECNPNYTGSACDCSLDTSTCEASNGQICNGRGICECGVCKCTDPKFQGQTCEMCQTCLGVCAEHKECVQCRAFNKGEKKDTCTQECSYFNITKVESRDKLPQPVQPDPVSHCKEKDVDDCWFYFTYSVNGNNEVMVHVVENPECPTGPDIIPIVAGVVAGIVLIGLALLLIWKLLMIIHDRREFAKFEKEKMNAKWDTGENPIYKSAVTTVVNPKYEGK

The term IC50 denotes the concentration that gives 50% inhibition. Take `Cn1c(=O)n(-c2ccc(C[C@H](NC(=O)c3c(F)cc(NS(=O)(=O)c4ccc(-n5cncn5)cn4)cc3F)C(=O)O)cc2)c(=O)c2ccncc21` [Example 57, N-[2,6-Difluoro-4-({[5-(1H-1,2,4-triazol-1-yl)pyridin-2-yl]sulfonyl}amino)benzoyl]-4-(1-methyl-2,4-dioxo-1,4-dihydropyrido[3,4-d]pyrimidin-3(2H)-yl)-L-phenylalanine]: the Selectivity on α4β7 integrin [1] is 220. The concentration for half-maximal inhibition (IC50) at α4β7 integrin [1] amounted to 0.06 nM; on α4β7 integrin [2], 1.5 nM; at α4β1 integrin, 13 nM.
In turn, `Cn1ccc(=O)n(-c2ccc(C[C@H](NC(=O)c3c(F)cc(NS(=O)(=O)c4ccc(-n5ccnn5)cc4)cc3F)C(=O)O)cc2)c1=O` [Example 58, N-[2,6-Difluoro-4-({[4-(1H-1,2,3-triazol-1-yl)phenyl]sulfonyl}amino)benzoyl]-4-(3-methyl-2,6-dioxo-3,6-dihydropyrimidin-1(2H)-yl)-L-phenylalanine] showed a Selectivity on α4β7 integrin [1] of 410. Also, the results for the IC50 on α4β7 integrin [1], on α4β7 integrin [2] and at α4β1 integrin were 1 nM, 4.8 nM and 410 nM, respectively.
On α4β7 integrin [1], `Cn1c(=O)n(-c2ccc(C[C@H](NC(=O)c3c(F)cc(NS(=O)(=O)c4ccc(-c5nccs5)cn4)cc3F)C(=O)O)cc2)c(=O)c2ccncc21` [Example 59, N-[2,6-Difluoro-4-({[5-(1,3-thiazol-2-yl)pyridin-2-yl]sulfonyl}amino)benzoyl]-4-(1-methyl-2,4-dioxo-1,4-dihydropyrido[3,4-d]pyrimidin-3(2H)-yl)-L-phenylalanine] registered a Selectivity of 130. For the same compound, the IC50 came to 0.17 nM at α4β7 integrin [1], 4.1 nM at α4β7 integrin [2] and 22 nM on α4β1 integrin.
`Cn1ccc(=O)n(-c2ccc(C[C@H](NC(=O)c3c(F)cc(NS(=O)(=O)c4ccc(-c5cncnc5)cc4)cc3F)C(=O)O)cc2)c1=O` [Example 60, N-(2,6-Difluoro-4-{[(4-pyrimidin-5-yl-phenyl)sulfonyl]amino}benzoyl)-4-(3-methyl-2,6-dioxo-3,6-dihydropyrimidin-1 (2H)-yl)-L-phenylalanine]: at α4β7 integrin [1], the Selectivity is recorded as 1100. Moreover, the figures for the IC50 on α4β7 integrin [1], at α4β7 integrin [2] and at α4β1 integrin were 1.1 nM, 5.5 nM and 1200 nM, respectively.
For `Cn1c(=O)n(-c2ccc(C[C@H](NC(=O)c3c(F)cc(NS(=O)(=O)c4ccc(-n5nccn5)cc4)cc3F)C(=O)O)cc2)c(=O)c2ccncc21` [Example 61, N-[2,6-Difluoro-4-({[4-(2H-1,2,3-triazol-2-yl)phenyl]sulfonyl}amino)benzoyl]-4-(1-methyl-2,4-dioxo-1,4-dihydropyrido[3,4-d]pyrimidin-3(2H)-yl)-L-phenylalanine] the same measures were 330, 0.46 nM, 8.7 nM and 150 nM.
At α4β7 integrin [1], `Cn1c(=O)n(-c2ccc(C[C@H](NC(=O)c3c(F)cc(NS(=O)(=O)c4ccc(-n5cccn5)cc4)cc3F)C(=O)O)cc2)c(=O)c2ccncc21` [Example 62, N-[2,6-Difluoro-4-({[4-(1H-pyrazol-1-yl)phenyl]sulfonyl}amino)benzoyl]-4-(1-methyl-2,4-dioxo-1,4-dihydropyrido[3,4-d]pyrimidin-3(2H)-yl)-L-phenylalanine] displayed a Selectivity of 160. Further, the IC50 was 0.64 nM on α4β7 integrin [1], 13 nM at α4β7 integrin [2] and 100 nM at α4β1 integrin.
Regarding `Cn1ccc(=O)n(-c2ccc(C[C@H](NC(=O)c3c(F)cc(NS(=O)(=O)c4ccc(-c5cncnc5)cn4)cc3F)C(=O)O)cc2)c1=O` [Example 63, N-(2,6-Difluoro-4-{[(5-pyrimidin-5-yl-pyridin-2-yl)sulfonyl]amino}benzoyl)-4-(3-methyl-2,6-dioxo-3,6-dihydropyrimidin-1(2H)-yl)-L-phenylalanine], at α4β7 integrin [1], the Selectivity is 600. For the same compound, the IC50 on α4β7 integrin [1] was determined as 0.8 nM; at α4β7 integrin [2], 11 nM; at α4β1 integrin, 480 nM.
Turning to `Cn1ccc(=O)n(-c2ccc(C[C@H](NC(=O)c3c(F)cc(NS(=O)(=O)c4ccc(-n5cccc5)cc4)cc3F)C(=O)O)cc2)c1=O` [Example 64, N-[2,6-Difluoro-4-({[4-(1H-pyrrol-1-yl)phenyl]sulfonyl}amino)benzoyl]-4-(3-methyl-2,6-dioxo-3,6-dihydropyrimidin-1(2H)-yl)-L-phenylalanine], the Selectivity at α4β7 integrin [1] is 750. Besides, the IC50 at α4β7 integrin [1] was 2 nM; on α4β7 integrin [2], 22 nM; at α4β1 integrin it was 1500 nM.
On the same counts, the results for `Cc1cnccc1-c1ccc(S(=O)(=O)Nc2cc(F)c(C(=O)N[C@@H](Cc3ccc(-n4c(=O)c5ccncc5n(C)c4=O)cc3)C(=O)O)c(F)c2)cc1` [Example 65, N-[2,6-Difluoro-4-({[4-(3-methylpyridin-4-yl)phenyl]sulfonyl}amino)benzoyl]-4-(1-methyl-2,4-dioxo-1,4-dihydropyrido[3,4-d]pyrimidin-3(2H)-yl)-L-phenylalanine] are 750, 0.56 nM, 9.7 nM and 420 nM.

The record behind these values is patent US9533985B2, “Sulfonamide derivative and medicinal use thereof” (EA Pharma Co., Ltd., priority 2012, dated 2017).
